Laboratory results published in patent publication US12391679B2, “Benzamide-substituted bicyclic imidazo- and pyrazolo-fused -pyridine, -pyrimide, and -pyridazine compounds for treatment of inflammatory diseases” (ONCO3R Therapeutics BV, priority 2019, dated 2025).

What was measured:
[1] = biological target: T1, SIK1 (Homo sapiens, UniProt P57059); experiment: ADP-Glo kinase assay, SIK1; assay type: biochemical
T1 construct: purchased Carna Biosciences 02-131
Method in brief: (§1)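 Each SIK isoform is incubated with substrate and ATP for 2 h at room temperature, after which residual ATP is depleted and the ADP formed is quantified by luminescence.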

[2] = biological target: T2, SIK2 (Homo sapiens, UniProt Q9H0K1); experiment: ADP-Glo kinase assay, SIK2; assay type: biochemical
T2 construct: purchased ThermoFisher Scientific PV4792
Method in brief: as §1

[3] = biological target: T3, SIK3 (Homo sapiens, UniProt Q9Y2K2); experiment: ADP-Glo kinase assay, SIK3; assay type: biochemical
T3 construct: purchased SignalChem S12-11G-100
Method in brief: as §1

[4] = tested on: LPS-induced TNFα in monocyte-derived macrophages; experiment: MdM assay: LPS-triggered TNFα (ELISA); assay type: cell-based, human; details: Macrophage; human MdM; LPS 200 ng/mL; supernatant after 20 h; inhibition of TNFα; read-out: TNFα EC50
Procedure: This assay evaluates illustrative compounds of the invention for their inhibition of LPS-induced TNFα and LPS triggered IL-10 secretion in monocyte-derived macrophages. PBMCs are isolated from human blood samples (buffycoats). The buffy coat is aseptically transferred into a 50 mL Falcon tube, and diluted 1/2 in PBS. Falcon tubes are filled with 20 mL LymphoprepTM, on top of which 25 mL of the buffy coat is carefully added, tubes are centrifuged for 35 min at 400 g in temperature controlled centrifuge, without brake, at 25° C. PBMCs are aspirated from the white interface layer between sample and LymphoprepTM. PBMCs are washed five times in PBS. […] PBMCs are centrifuged at 300×g for 10 min and resuspended at a density of 1.0*10^7 cells/80 μL Miltenyi buffer (PBS, pH 7.4, 1% FBS, 2 mM EDTA). Starting from this point of the protocol all steps are performed on ice. 20 μL of CD14+ micro-beads are added per 1.0*10^7 cells, the tube is mixed and incubated for 15 min in the fridge at 4° C. Cell suspension volume is adjusted to total volume of 100 mL using Miltenyi buffer, mixed gently and subsequently centrifuged for 10 min at 300×g. Supernatant is discarded and cell pellet is resuspended in 12 mL of Miltenyi buffer. Four LS columns are placed in the MACS Separator (magnet) from Miltenyi Biotec, and are prewet by rinsing with 3 mL of MACS buffer per column. Three mL of cell suspension is added onto the column (max 1*10^8 of labelled cells/column), and columns are subsequently washed 3 times with 3 mL of Miltenyi buffer. The columns are removed from the magnets, and 5 mL of Miltenyi buffer are added to the column to flush out the CD14+ fraction by pushing the plunger into the column. The flushed fractions are collected in a fresh 50 mL Falcon and volume is adjusted to 30 mL using Miltenyi buffer, cells are centrifuged for 10 min at 300×g. The obtained cell pellet is resuspended in 10 mL RPMI w/o FBS, and cell density is determined using a hematologic analyser (Sysmex XS-500i). […] On day 10, MdMs are triggered and compound is added. A compound dilution plate is made in 100% DMSO by 3-fold dilution of 10 mM stock solution. An intermediate dilution plate (10× final concentration) is made by diluting the compound dilution plate […] in RPMI medium. Medium is carefully removed from cell plates using multichannel pipette, and replaced by 80 μL fresh medium. 10 μL of the 10× final concentration compound is added to the cells and incubated for 1 hour at 37° C. before addition of trigger. No trigger conditions/trigger conditions are spiked with equal final DMSO concentrations of 0.2% DMSO. 10 μL of 10×LPS (final conc. 200 ng/mL) solution are added to all wells except for the 'no trigger wells' where 10 μL medium is added. Supernatant is collected after 2 h (IL-10 determination) and after 20 h (TNFα determination) of LPS triggering. […] The plate is then washed once with PBST (PBS+0.05% Tween20) and once with PBS followed by the addition of 100 μL of blocking buffer (1% Bovine Serum Albumin (BSA) -5% Sucrose) and plates are sealed and incubated for at least 4 h at RT. After washing the plate once with PBST and once with PBS, 40 μL of standard or sample are added (TNFα standard curve is prepared using a 1/2 serial dilution starting from 16000 pg/mL; dilutions are made in dilution buffer (PBS+1% BSA)). Plates are washed twice with PBST, and once with PBS, after which 35 μL of the detection antibody is added (final concentration 0.25 μg/mL diluted in dilution buffer) and plates are incubated for at least 2 h at RT. Plates are washed twice with PBST, and once with PBS, where after 35 μL of Strep-HRP conjugate (0.5 μg/mL final concentration diluted in dilution buffer) is added. […] Plates are washed twice with PBST, and once with PBS. Thereafter, 50 μL of luminol substrate is added to each well (prepared according to manufacturer's instructions), and incubated for 5 min at RT protected from light.

[5] = tested on: LPS-induced TNFα in monocytes; experiment: Monocytes assay: LPS-triggered TNFα (ELISA); assay type: cell-based, human; details: Homo sapiens, Monocyte, LPS-triggered TNFα inhibition
Procedure: This assay evaluates illustrative compounds of the invention for their inhibition of LPS-induced TNFα and LPS triggered IL-10 secretion in monocytes.
PBMCs are isolated from human blood samples (buffycoats). The buffy coat is aseptically transferred into a 50 mL Falcon tube, and diluted 1/2 in PBS. Falcon tubes are filled with 20 mL Lymphoprep™, on top of which 25 mL of the buffy coat is carefully added, tubes are centrifuged for 35 min at 400 g in temperature controlled centrifuge, without brake, at 25° C. PBMCs are aspirated from the white interface layer between sample and Lymphoprep™. PBMCs are washed five times in PBS.
PBMCs are centrifuged at 300×g for 10 min and resuspended at a density of 1.0*10^7 cells/80 μL Miltenyi buffer (PBS, pH 7.4, 1% FBS, 2 mM EDTA).
Starting from this point of the protocol all steps are performed on ice. 20 μL of CD14+ micro-beads are added per 1.0*10^7 cells, the tube is mixed and incubated for 15 min in the fridge at 4° C. Cell suspension volume is adjusted to total volume of 100 mL using Miltenyi buffer, mixed gently and subsequently centrifuged for 10 min at 300×g. Supernatant is discarded and cell pellet is resuspended in 12 mL of Miltenyi buffer.
Four LS columns are placed in the MACS Separator (magnet) from Miltenyi Biotec, and are prewet by rinsing with 3 mL of MACS buffer per column. Three mL of cell suspension is added onto the column (max 1*10^8 of labelled cells/column), and columns are subsequently washed 3 times with 3 mL of Miltenyi buffer.
The columns are removed from the magnets, and 5 mL of Miltenyi buffer are added to the column to flush out the CD14+ fraction by pushing the plunger into the column. The flushed fractions are collected in a fresh 50 mL Falcon and volume is adjusted to 30 mL using Miltenyi buffer, cells are centrifuged for 10 min at 300×g. The obtained cell pellet is resuspended in 10 mL RPMI w/o FBS, and cell density is determined using a hematologic analyser (Sysmex XS-500i).
A compound dilution plate is made in 100% DMSO by 3-fold dilution of 10 mM stock solution. An intermediate dilution plate (10× final concentration) is made by diluting the compound dilution plate 50-fold in RPMI medium.
10 μL of the 10× final concentration compound is added to the cells and incubated for 1 h at 37° C. before addition of trigger. No trigger conditions/trigger conditions are spiked with equal final DMSO concentrations of 0.2% DMSO. 10 μL of 10×LPS (final conc. 200 ng/mL) solution are added to all wells except for the ‘no trigger wells’ where 10 μL medium is added. Supernatant is collected after 4 h of LPS triggering.
The plate is then washed once with PBST (PBS+0.05% Tween20) and once with PBS followed by the addition of 100 μL of blocking buffer (1% Bovine Serum Albumin (BSA)-5% Sucrose) and plates are sealed and incubated for at least 4 h at RT. After washing the plate once with PBST and once with PBS, […]. Plates are washed twice with PBST, and once with PBS, after which 35 μL of the detection antibody is added (final concentration 0.25 μg/mL diluted in dilution buffer) and plates are incubated for at least 2 h at RT. Plates are washed twice with PBST, and once with PBS, whereafter 35 μL of Strep-HRP conjugate (0.5 μg/mL final concentration diluted in dilution buffer) is added. Plates are incubated in the dark, at RT for at least 45 min but no longer than 1 h. Plates are washed twice with PBST, and once with PBS. Thereafter, 50 μL of luminol substrate is added to each well (prepared according to manufacturer's instructions), and incubated for 5 min at RT protected from light.
To measure the inhibition of LPS induced TNFα, percentage inhibition (PIN) values are calculated for all concentrations tested, compared to controls.

T2 sequence (Q9H0K1 whole entry): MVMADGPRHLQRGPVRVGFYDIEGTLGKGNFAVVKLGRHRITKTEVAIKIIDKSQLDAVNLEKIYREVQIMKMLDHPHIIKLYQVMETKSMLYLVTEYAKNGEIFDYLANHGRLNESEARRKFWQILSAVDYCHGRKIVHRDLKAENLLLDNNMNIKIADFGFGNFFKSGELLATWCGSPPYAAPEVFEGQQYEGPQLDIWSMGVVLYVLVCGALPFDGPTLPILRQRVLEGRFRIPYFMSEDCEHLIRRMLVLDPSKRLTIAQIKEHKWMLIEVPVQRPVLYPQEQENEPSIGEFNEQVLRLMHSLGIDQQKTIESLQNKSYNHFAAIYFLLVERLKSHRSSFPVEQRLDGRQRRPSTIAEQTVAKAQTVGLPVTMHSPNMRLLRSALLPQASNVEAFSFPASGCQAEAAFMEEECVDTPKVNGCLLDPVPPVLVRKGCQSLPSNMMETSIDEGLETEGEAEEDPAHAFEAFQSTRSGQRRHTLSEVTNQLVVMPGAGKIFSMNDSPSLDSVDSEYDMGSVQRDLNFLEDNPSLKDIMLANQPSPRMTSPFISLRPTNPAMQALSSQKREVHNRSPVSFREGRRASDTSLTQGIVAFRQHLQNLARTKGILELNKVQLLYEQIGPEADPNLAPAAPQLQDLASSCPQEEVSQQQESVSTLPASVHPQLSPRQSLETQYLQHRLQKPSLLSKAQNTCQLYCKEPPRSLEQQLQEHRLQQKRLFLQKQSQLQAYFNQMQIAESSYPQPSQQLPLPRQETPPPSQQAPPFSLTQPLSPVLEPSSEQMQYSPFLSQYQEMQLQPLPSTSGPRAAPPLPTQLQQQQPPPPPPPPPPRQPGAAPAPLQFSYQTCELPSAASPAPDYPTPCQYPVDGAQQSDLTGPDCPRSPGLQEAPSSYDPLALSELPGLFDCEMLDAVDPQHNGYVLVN
T1 sequence (P57059 whole entry): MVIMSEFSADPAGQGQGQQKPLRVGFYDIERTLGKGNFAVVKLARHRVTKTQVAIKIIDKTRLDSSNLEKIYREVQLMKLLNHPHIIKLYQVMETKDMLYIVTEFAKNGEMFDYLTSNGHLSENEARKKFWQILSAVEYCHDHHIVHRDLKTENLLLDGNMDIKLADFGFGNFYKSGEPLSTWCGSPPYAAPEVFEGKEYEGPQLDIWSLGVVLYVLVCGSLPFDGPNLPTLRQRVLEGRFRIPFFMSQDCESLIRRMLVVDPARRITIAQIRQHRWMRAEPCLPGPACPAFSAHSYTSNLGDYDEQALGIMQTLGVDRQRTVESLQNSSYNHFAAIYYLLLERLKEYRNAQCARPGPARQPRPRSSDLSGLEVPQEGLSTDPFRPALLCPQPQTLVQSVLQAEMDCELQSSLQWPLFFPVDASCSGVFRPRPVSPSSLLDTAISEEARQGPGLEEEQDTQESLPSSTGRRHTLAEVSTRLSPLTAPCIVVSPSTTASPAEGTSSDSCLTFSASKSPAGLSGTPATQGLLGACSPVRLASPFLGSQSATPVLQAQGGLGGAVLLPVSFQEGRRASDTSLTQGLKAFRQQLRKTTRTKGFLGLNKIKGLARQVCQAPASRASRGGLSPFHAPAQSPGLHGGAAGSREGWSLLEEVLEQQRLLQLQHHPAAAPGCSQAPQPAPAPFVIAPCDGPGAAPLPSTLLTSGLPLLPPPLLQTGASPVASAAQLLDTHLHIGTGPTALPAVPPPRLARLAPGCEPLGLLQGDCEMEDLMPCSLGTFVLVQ
T3 sequence (Q9Y2K2 59-365 limits assumed): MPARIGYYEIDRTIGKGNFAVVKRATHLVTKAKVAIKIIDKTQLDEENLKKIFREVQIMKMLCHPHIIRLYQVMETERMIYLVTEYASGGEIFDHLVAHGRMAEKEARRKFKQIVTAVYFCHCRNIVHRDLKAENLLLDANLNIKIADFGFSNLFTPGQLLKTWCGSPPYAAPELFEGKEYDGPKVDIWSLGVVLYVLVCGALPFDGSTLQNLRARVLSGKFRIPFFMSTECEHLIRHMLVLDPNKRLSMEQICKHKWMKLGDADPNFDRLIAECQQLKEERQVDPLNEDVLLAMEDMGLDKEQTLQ

Row | Compound | IC50 [1] | IC50 [2] | IC50 [3] | EC50 [4] | EC50 [5]
1 | COc1cc(-c2cnc3cc(C4(C#N)CCCC4)ccn23)cc(OC(F)F)c1C(=O)NC1CC1 [Cpd 53, 4-[7-(1-cyanocyclopentyl)imidazo[1,2-a]pyridin-3-yl]-N-cyclopropyl-2-(difluoromethoxy)-6-methoxy-benzamide] | > 500 nM | > 500 nM | 0.01 to 10 nM | 100 to 1000 nM | –
2 | COc1cc(-c2cnc3cc(C4CCCN(C)C4)ccn23)cc(OC(F)F)c1C(=O)NC1CC1 (stereo not shown) [Cpd 67, N-cyclopropyl-2-(difluoromethoxy)-6-methoxy-4-[7-(1-methyl-3-piperidyl)imidazo[1,2-a]pyridin-3-yl]benzamide] | > 500 nM | 10 to 100 nM | 0.01 to 10 nM | 100 to 1000 nM | –
3 | COc1cc(-c2cnc3cc(C4CCN(C)CC4)ccn23)cc(OC(F)F)c1C(=O)NC1CC1 [Cpd 68, N-cyclopropyl-2-(difluoromethoxy)-6-methoxy-4-[7-(1-methyl-4-piperidyl)imidazo[1,2-a]pyridin-3-yl]benzamide] | > 500 nM | 10 to 100 nM | 0.01 to 10 nM | 1000 to 5000 nM | –
4 | CNC(=O)COCC(C)(C)c1ccc2c(-c3cc(OC)c(C(=O)N[C@@H]4C[C@@H]4F)c(OC(F)F)c3)cnn2c1 [Cpd 253, 2-(difluoromethoxy)-4-[6-[1,1-dimethyl-2-[2-(methylamino)-2-oxo-ethoxy]ethyl]pyrazolo[1,5-a]pyridin-3-yl]-N-[(1R,2S)-2-fluorocyclopropyl]-6-methoxy-benzamide] | > 500 nM | > 500 nM | 0.01 to 10 nM | – | 100 to 1000 nM
5 | COc1cc(-c2cnn3cc(C(C)(C)OCCN4CCOCC4)ccc23)cc(OC(F)F)c1C(=O)N[C@@H]1C[C@@H]1F [Cpd 255, 2-(difluoromethoxy)-N-[(1R,2S)-2-fluorocyclopropyl]-6-methoxy-4-[6-[1-methyl-1-(2-morpholinoethoxy)ethyl]pyrazolo[1,5-a]pyridin-3-yl]benzamide] | > 500 nM | > 500 nM | 10 to 100 nM | – | 100 to 1000 nM
6 | COc1cc(-c2cnn3cc(C(C)(C)COCC4COC4)ccc23)cc(OC(F)F)c1C(=O)N[C@@H]1C[C@@H]1F [Cpd 262, 2-(difluoromethoxy)-4-[6-[1,1-dimethyl-2-(oxetan-3-ylmethoxy)ethyl]pyrazolo[1,5-a]pyridin-3-yl]-N-[(1R,2S)-2-fluorocyclopropyl]-6-methoxy-benzamide] | > 500 nM | > 500 nM | 0.01 to 10 nM | – | 100 to 1000 nM
7 | COc1cc(-c2cnn3cc(C(C)(C)COC4COC4)ccc23)cc(OC(F)F)c1C(=O)N[C@@H]1C[C@@H]1F [Cpd 265, 2-(difluoromethoxy)-4-[6-[1,1-dimethyl-2-(oxetan-3-yloxy)ethyl]pyrazolo[1,5-a]pyridin-3-yl]-N-[(1R,2S)-2-fluorocyclopropyl]-6-methoxy-benzamide] | > 500 nM | > 500 nM | 10 to 100 nM | – | 100 to 1000 nM
8 | COc1cc(-c2cnn3cc(C(C)(C)NCCO)ccc23)cc(OC(F)F)c1C(=O)N[C@@H]1C[C@@H]1F [Cpd 268, 2-(difluoromethoxy)-N-[(1R,2S)-2-fluorocyclopropyl]-4-[6-[1-(2-hydroxyethylamino)-1-methyl-ethyl]pyrazolo[1,5-a]pyridin-3-yl]-6-methoxy-benzamide] | > 500 nM | > 500 nM | 10 to 100 nM | – | 100 to 1000 nM
9 | COC(=O)NC1(c2ccc3c(-c4cc(OC)c(C(=O)N[C@@H]5C[C@@H]5F)c(OC(F)F)c4)cnn3c2)CCC1 [Cpd 272, methyl N-[1-[3-[3-(difluoromethoxy)-4-[[(1R,2S)-2-fluorocyclopropyl]carbamoyl]-5-methoxy-phenyl]pyrazolo[1,5-a]pyridin-6-yl]cyclobutyl]carbamate] | > 500 nM | > 500 nM | 10 to 100 nM | – | 100 to 1000 nM
10 | CNC(=O)C1(c2ccc3c(-c4cc(OC)c(C(=O)N[C@@H]5C[C@@H]5F)c(OC(F)F)c4)cnn3c2)CCC1 [Cpd 273, 2-(difluoromethoxy)-N-[(1R,2S)-2-fluorocyclopropyl]-6-methoxy-4-[6-[1-(methylcarbamoyl)cyclobutyl]pyrazolo[1,5-a]pyridin-3-yl]benzamide] | > 500 nM | > 500 nM | 10 to 100 nM | – | 100 to 1000 nM
